Laboratory results: patent US20200206108A1, “Oral Care Compositions and Methods of Use” (Colgate-Palmolive Company, priority 2018, published 2020)

Test: Zeta potential of zinc oxide in the presence of amino acids
Format: physicochemical
Details: aqueous zinc oxide suspension 12 mM, alone (pH 8) or with the named amino acid (1.7 mmol) added
Description: The effect on zinc oxide particle charge upon exposure to amino acids was screened using zeta potential. Specific amino acids were selected based on side chain functionality: L-serine (polar, neutral), L-arginine (polar, cationic), and L-glutamic acid (polar, anionic). For zeta potential measurements, select amino acids (1.7 mmol) were added to aqueous suspensions of zinc oxide (12 mM). This concentration of zinc oxide was studied so as to minimize aggregation during zeta potential measurements. Each amino acid-zinc oxide solution was vortexed, sonicated, and then loaded into a Zetasizer DTS 1061 capillary cuvette. The cuvette was placed in the Zetasizer instrument and 12 zeta runs were performed. An average zeta potential value was calculated from the results.

Row | SMILES | zeta potential (charge of zinc oxide)
1 | [O]=[Zn] [Zinc oxide, zinc oxide] | +16 mV
2 | N[C@@H](CCC(=O)O)C(=O)O [L-glutamic acid] | −28 mV
3 | N=C(N)NCCC[C@H](N)C(=O)O [L-arginine] | +36 mV
4 | N[C@@H](CO)C(=O)O [L-serine] | did not alter the charge
